For three molecules, IC50 results are on record in patent US6514952B1, “Hydantoin derivatives as inhibitors of leucocyte adhesion and as VLA-4 antagonists” (Hoechst Aktiengesellschaft, priority 1996, dated 2003).

In this experiment the target is T1, interaction between VCAM-1 and VLA-4 (Homo sapiens, UniProt P05556+P13612).
T1 construct: the VLA-4-integrins, are offered in their natural form as surface molecules on human U937 cells; host or cells: U937 cells (VLA-4, endogenous); hVCAM-1(1-3)-IgG from supernatant of transfected COS cells (ATCC CRL1651)
T1 sequence (P13612 34-1032): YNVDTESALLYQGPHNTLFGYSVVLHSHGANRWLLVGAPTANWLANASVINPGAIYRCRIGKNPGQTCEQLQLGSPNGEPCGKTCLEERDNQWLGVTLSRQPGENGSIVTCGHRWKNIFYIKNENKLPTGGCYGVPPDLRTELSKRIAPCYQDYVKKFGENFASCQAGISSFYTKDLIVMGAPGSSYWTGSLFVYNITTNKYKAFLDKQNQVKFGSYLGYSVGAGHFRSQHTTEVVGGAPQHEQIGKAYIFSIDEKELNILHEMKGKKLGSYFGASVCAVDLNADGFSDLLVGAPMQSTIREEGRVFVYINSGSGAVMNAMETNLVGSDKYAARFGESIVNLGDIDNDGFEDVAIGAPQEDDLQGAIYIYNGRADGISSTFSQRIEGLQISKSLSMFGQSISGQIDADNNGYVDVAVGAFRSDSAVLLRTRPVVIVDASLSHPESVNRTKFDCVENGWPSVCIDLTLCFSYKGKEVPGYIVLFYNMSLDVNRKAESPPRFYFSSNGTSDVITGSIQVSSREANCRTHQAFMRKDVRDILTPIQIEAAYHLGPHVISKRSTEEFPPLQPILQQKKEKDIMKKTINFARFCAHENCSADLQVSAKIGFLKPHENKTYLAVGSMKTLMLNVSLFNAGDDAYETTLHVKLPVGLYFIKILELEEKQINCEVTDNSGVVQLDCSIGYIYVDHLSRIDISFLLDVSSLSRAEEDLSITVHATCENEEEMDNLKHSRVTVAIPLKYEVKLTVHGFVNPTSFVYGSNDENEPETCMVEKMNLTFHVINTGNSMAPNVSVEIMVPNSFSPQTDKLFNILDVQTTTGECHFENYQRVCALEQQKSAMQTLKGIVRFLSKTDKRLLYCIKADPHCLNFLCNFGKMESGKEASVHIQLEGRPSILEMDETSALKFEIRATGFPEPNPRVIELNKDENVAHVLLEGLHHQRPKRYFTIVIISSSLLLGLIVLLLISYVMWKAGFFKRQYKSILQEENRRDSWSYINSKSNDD
T1 sequence (P05556 21-798): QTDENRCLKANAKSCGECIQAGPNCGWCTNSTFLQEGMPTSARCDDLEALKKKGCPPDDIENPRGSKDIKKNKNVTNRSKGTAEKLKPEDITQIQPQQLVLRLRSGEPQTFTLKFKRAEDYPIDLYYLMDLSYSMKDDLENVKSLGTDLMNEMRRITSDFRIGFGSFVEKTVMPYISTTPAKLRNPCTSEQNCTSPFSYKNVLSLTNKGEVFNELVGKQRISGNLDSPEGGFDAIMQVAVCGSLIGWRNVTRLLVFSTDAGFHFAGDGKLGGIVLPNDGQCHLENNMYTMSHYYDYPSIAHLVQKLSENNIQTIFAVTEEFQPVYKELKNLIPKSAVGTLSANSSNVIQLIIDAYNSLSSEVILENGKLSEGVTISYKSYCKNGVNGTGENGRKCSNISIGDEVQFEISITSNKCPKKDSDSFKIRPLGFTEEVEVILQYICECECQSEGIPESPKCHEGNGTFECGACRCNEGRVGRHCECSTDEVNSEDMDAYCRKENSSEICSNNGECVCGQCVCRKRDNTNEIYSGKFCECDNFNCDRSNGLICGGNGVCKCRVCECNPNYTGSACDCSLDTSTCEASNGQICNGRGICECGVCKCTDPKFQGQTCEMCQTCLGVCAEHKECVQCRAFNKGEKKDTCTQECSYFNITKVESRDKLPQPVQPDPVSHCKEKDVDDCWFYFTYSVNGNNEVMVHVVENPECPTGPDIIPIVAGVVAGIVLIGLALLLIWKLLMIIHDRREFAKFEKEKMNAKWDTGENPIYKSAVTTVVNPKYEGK
Briefly: U937/VCAM-1 cell adhesion test (adhesion of U937 cells to hVCAM-1(1-3)-IgG). Format: cell-based. The settings on record: inhibition of adhesion of human U937 cells (ATCC CRL 1593) to hVCAM-1(1-3)-IgG. The text has this:
As a test method for the activity of the compounds of the formula I on the interaction between VCAM-1 and VLA-4, an assay is used which is specific for this interaction. The cellular binding components, i.e. the VLA-4-integrins, are offered in their natural form as surface molecules on human U937 cells (ATCC CRL 1593), which belong to the group of leucocytes. As specific binding components, recombinant soluble fusion proteins, prepared by genetic engineering and consisting of the extracytoplasmic domains of human VCAM-1 and the constant region of a human immunoglobulin of the subclass IgG1, are used.
Assay for the Measurement of the Adhesion of U937 Cells (ATCC CRL 1593) to hVCAM-1(1-3)-IgG
1. Preparation of Human VCAM-1(1-3)-IgG and Human CD4-IgG
A genetic construct for the expression of the extracellular domains of human VCAM-1 was employed, associated with the genetic sequence of the heavy chain of human immunoglobulin IgG1 (hinge, CH2 and CH3 regions), from Dr. Brian Seed, Massachusetts General Hospital, Boston, USA. The soluble fusion protein hVCAM-1(1-3)-IgG contained the throe amino-terminal extracellular immunoglobulin-like domains of human VCAM-1 (Damle and Aruffo, Proc. Natl. Acad. Sci. USA 1991, 88, 6403). CD4-IgG (Zettlmeissl et al., DNA and Cell Biology 1990, 9, 347) served as a fusion protein for negative controls. The recombinant proteins were expressed as soluble proteins after DEAE/dextran-mediated DNA-transfection in COS cells (ATCC CRL1651) according to standard procedures (Ausubel et al., Current protocols in molecular biology, John Wiley & Sons, Inc., 1994).
2. Assay for the Measurement of the Adhesion of U937 Cells to hVCAM-1(1-3)-IgG
2.1 96-well microtiter test plates (Nunc Maxisorb) were incubated at room temperature for 1 hour with 100 μl/well of a goat-anti-human IgG antibody solution (10 μg/ml in 50 mM Tris, pH 9.5). After removing the antibody solution, washing was carried out once with PBS.
2.2 150 μl/well of a blocking buffer (1% BSA in PBS) was incubated on the plates at room temperature for 0.5 hour. […]

Molecules are shown by their SMILES.

`CC1(c2ccc(C3=NCCN3)cc2)C(=O)N(CC(=O)NC[C@H](NC(=O)OCC23CC4CC(CC(C4)C2)C3)C(=O)O)C(=O)N1Cc1ccc2ccccc2c1` (stereo partly drawn) [Example 3, (S)-3-(((R,S)-4-(4-(4,5-Dihydro-2-imidazolyl)phenyl)-3-(2-naphthylmethyl)-4-methyl-2,5-dioxoimidazolidin-1-yl)acetylamino)-2-(1-adamantyl-methyloxycarbonylamino)propionic Acid]: 40 µM corresponded to half-maximal inhibition (IC50).

Consider `CC1(c2ccc(C(N)=O)cc2)C(=O)N(CC(=O)N[C@@H](CC(=O)O)C(=O)N[C@H](C(=O)O)c2ccccc2)C(=O)N1Cc1ccccc1` (stereo partly drawn) [Example 1], for which inhibition was half-maximal at 7.5 µM (IC50).

Take `CC1(c2ccc(C3=NCCN3)cc2)C(=O)N(CC(=O)N[C@@H](CC(=O)O)C(=O)N[C@H](C(=O)O)c2ccccc2)C(=O)N1Cc1ccc2ccccc2c1` (stereo partly drawn) [Example 2, ((R,S)-4-(4-(4,5-Dihydro-2-imidazolyl)phenyl)-3-(2-naphthylmethyl)-4-methyl-2,5-dioxoimidazolidin-1-yl)acetyl-L-aspartyl-L-phenylglycine]: the IC50 (usually the concentration that gives 50% inhibition) was 14.5 µM.
